From patent publication US8017611B2, “Pyridine and pyrazine derivatives -083” (AstraZeneca AB, priority 2007, dated 2011) come the findings set out here.

Marks after values point to notes of the source that are not given here.

The first test has as its target T1, recombinant Axl tyrosine kinase (Homo sapiens, UniProt P30530).
T1 construct: encompassing amino acids 473 to 894 of Axl; GST (N); made in house; host or cells: SF126 insect cells
T1 sequence (P30530 473-894): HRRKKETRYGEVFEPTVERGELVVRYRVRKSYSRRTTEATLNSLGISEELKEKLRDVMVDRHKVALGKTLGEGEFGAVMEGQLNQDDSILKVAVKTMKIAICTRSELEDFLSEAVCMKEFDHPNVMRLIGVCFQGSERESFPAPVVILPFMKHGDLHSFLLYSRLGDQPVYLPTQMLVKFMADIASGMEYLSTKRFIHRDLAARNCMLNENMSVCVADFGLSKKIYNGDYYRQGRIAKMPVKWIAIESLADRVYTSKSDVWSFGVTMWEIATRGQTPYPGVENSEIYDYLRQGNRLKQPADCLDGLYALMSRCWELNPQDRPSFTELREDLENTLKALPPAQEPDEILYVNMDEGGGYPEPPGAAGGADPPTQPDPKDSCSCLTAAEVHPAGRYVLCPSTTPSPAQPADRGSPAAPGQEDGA
Kind of test: In vitro Axl kinase assay (AlphaScreen), Test (a). In kind it is biochemical. The note with it: Test (a); read-out: IC50 versus Axl tyrosine kinase. Background: In Alpha technology, singlet oxygen from a donor bead excites a nearby acceptor bead.
As usually defined, the IC50 is the midpoint of a concentration-inhibition curve. With `COc1cccc2nc(-c3cc(-c4cn(C5CCN(C)CC5)nc4CO)cnc3N)oc12` [Example 41.42], the half-maximal inhibitory concentration (IC50) was around 200 pM.

Staying with this test, now noted: test compound at 1 μM; first value quoted.
For `Cc1c(-c2cnc(N)c(-c3nc4ccccc4o3)c2)cnn1C1CCN(C)CC1` [Example 41.18], the “% Axl tyrosine kinase inhibition at 1 μM concentration” value (shortened to “% Axl tyrosine kinase inhibition”) came to 100.0%. The same measure, in the same setting: next, `Cc1nn(C2CCN(C)CC2)cc1-c1cnc(N)c(-c2nc3cccnc3o2)c1` [Example 41.20]: 99.7%; `Cc1nn(C2CCN(C)CC2)cc1-c1cnc(N)c(-c2nc3ccccc3o2)n1` [Example 41.21]: 100.0%; `Cc1nn(C2CCN(C)CC2)cc1-c1cnc(N)c(-c2nc3ncccc3o2)c1` [Example 41.22]: 100.0%.

`Cc1nn(C2CCN(C)CC2)cc1-c1cnc(N)c(-c2nc3c(F)cccc3o2)c1` [Example 41.23]: the “% Axl tyrosine kinase inhibition” value is reported as 100.0%. On the same count and under the same terms, next, `COc1cccc2oc(-c3cc(-c4cnn(C5CCN(C)CC5)c4)cnc3N)nc12` [Example 41.24]: 92.1%.

Regarding `CN1CCC(n2cc(-c3cnc(N)c(-c4nc5c(C#N)cccc5o4)c3)cn2)CC1` [Example 41.25], the “% Axl tyrosine kinase inhibition” value came out at 99.8%. Still for that read-out and setting: next, `COc1cccc2nc(-c3cc(-c4cnn(C5CCN(C)CC5)c4)cnc3N)oc12` [Example 41.27]: 100.0%. `CN1CCC(n2cc(-c3cnc(N)c(-c4nc5ccccc5o4)c3)c(C#N)n2)CC1` [Example 41.28]: the “% Axl tyrosine kinase inhibition” value came out at 100.0%. As for `CC(O)c1nn(C2CCN(C)CC2)cc1-c1cnc(N)c(-c2nc3ccccc3o2)c1` (stereo not drawn) [Example 41.29], the “% Axl tyrosine kinase inhibition” value is recorded as 99.9%. Same read-out and setting: next, `CN1CCC(n2cc(-c3cnc(N)c(-c4nc5ccccc5o4)c3)c(C(=O)N(C)C)n2)CC1` [Example 41.30]: 99.5%; `CN1CCC(n2cc(-c3cnc(N)c(-c4nc5ccccc5o4)c3)c(N(C)C)n2)CC1` [Example 41.31]: 99.9%. The same measure, in the same setting: next, `CN1CCC(n2cc(-c3cnc(N)c(-c4nc5c(F)cccc5o4)c3)c(CO)n2)CC1` [Example 41.32]: 100.0%; `CNC(=O)c1nn(C2CCN(C)CC2)cc1-c1cnc(N)c(-c2nc3ccccc3o2)c1` [Example 41.33]: 99.6%; `COCc1nn(C2CCN(C)CC2)cc1-c1cnc(N)c(-c2nc3c(F)cccc3o2)c1` [Example 41.34]: 100.0%. Consider `CN1CCC(n2cc(-c3cnc(N)c(-c4nc5ccccc5o4)c3)c(C(N)=O)n2)CC1` [Example 41.35], for which the “% Axl tyrosine kinase inhibition” value is reported as 99.8%. On the same count and under the same terms, next, `CNC(=O)c1cccc2nc(-c3cc(-c4cnn(C5CCN(C)CC5)c4)cnc3N)oc12` [Example 41.36]: 100.0%. Consider `CN1CCC(n2cc(-c3cnc(N)c(-c4nc5c(F)cccc5o4)c3)c(C(=O)N(C)C)n2)CC1` [Example 41.37], for which the “% Axl tyrosine kinase inhibition” value is on record as 99.5%. With `COCc1nn(C2CCN(C)CC2)cc1-c1cnc(N)c(-c2nc3c(C#N)cccc3o2)c1` [Example 41.39], the “% Axl tyrosine kinase inhibition” value came out at 100.0%. `Cc1nn(C2CCN(C)CC2)cc1-c1cnc(N)c(-c2nc3c(C#N)cccc3o2)c1` [Example 41.40]: the “% Axl tyrosine kinase inhibition” value came out at 99.2%.

On to `CC(O)c1nn(C2CCN(C)CC2)cc1-c1cnc(N)c(-c2nc3c(C#N)cccc3o2)c1` (stereo not drawn) [Example 41.41], for which the “% Axl tyrosine kinase inhibition” value came to 99.7%.

Turning to `COc1cccc2nc(-c3cc(-c4cn(C5CCN(C)CC5)nc4CO)cnc3N)oc12` [Example 41.42], the “% Axl tyrosine kinase inhibition” value worked out at 100.0%. Consider `COCc1nn(C2CCN(C)CC2)cc1-c1cnc(N)c(-c2nc3cccc(OC)c3o2)c1` [Example 41.43], for which the “% Axl tyrosine kinase inhibition” value amounted to 100.0%. The same measure, in the same setting: next, `Nc1ncc(-c2ccc(OCCN3CCOCC3)cc2)cc1-c1nc2cccnc2o1` [Example 43A.2]: 97.2%; `Nc1ncc(-c2ccc(OCCN3CCCC3)cc2)cc1-c1nc2cccnc2o1` [Example 43A.3]: 98.7%. As to `Nc1ncc(-c2ccc(OCCN3CCCC3)cc2)cc1-c1nc2ncccc2o1` [Example 43B.1], the “% Axl tyrosine kinase inhibition” value stood at 99.8%. As to `CN(C)CCOc1ccc(-c2cnc(N)c(-c3nc4ncccc4o3)c2)cc1` [Example 43B.2], the “% Axl tyrosine kinase inhibition” value came out at 96.9%. Still for that read-out and setting: next, `CCN(CC)CCOc1ccc(-c2cnc(N)c(-c3nc4ncccc4o3)c2)cc1` [Example 43B.3]: 99.6%.

As to `CN1CCC(Oc2ccc(-c3cnc(N)c(-c4nc5ncccc5o4)c3)cc2)C1` (stereo not drawn) [Example 43B.4], the “% Axl tyrosine kinase inhibition” value turned out to be 99.3%. On to `CN1CCC[C@H]1COc1ccc(-c2cnc(N)c(-c3nc4ncccc4o3)c2)cc1` [Example 43B.5], for which the “% Axl tyrosine kinase inhibition” value stood at 99.4%. For the compound `Nc1ncc(-c2ccc(OCCN3CCOCC3)cc2)cc1-c1nc2ncccc2o1` [Example 43B.6], the “% Axl tyrosine kinase inhibition” value turned out to be 96.4%. `CN1CCN(CCOc2ccc(-c3cnc(N)c(-c4nc5ncccc5o4)c3)cc2)CC1` [Example 43B.7]: the “% Axl tyrosine kinase inhibition” value was determined as 98.1%. Still for that read-out and setting: next, `Nc1ncc(-c2ccc(OCCN3CCCCC3)cc2)cc1-c1nc2ncccc2o1` [Example 43B.8]: 19.0^††† %; `CN1CCCC(Oc2ccc(-c3cnc(N)c(-c4nc5ncccc5o4)c3)cc2)C1` (stereo not drawn) [Example 43B.9]: 98.2%. As for `CN(C)CCCOc1ccc(-c2cnc(N)c(-c3nc4ncccc4o3)c2)cc1` [Example 43B.10], the “% Axl tyrosine kinase inhibition” value is on record as 98.4%. Same read-out and setting: next, `CN1CCC(Oc2ccc(-c3cnc(N)c(-c4nc5ncccc5o4)c3)cc2)CC1` [Example 43B.11]: 98.1%.

For `CN1CCCC(COc2ccc(-c3cnc(N)c(-c4nc5ncccc5o4)c3)cc2)C1` (stereo not drawn) [Example 43B.12], the “% Axl tyrosine kinase inhibition” value came out at 98.8%. Turning to `CN1CCCCC1CCOc1ccc(-c2cnc(N)c(-c3nc4ncccc4o3)c2)cc1` (stereo not drawn) [Example 43B.13], the “% Axl tyrosine kinase inhibition” value came out at 96.8%. Same read-out and setting: next, `CN1CCN(CCCOc2ccc(-c3cnc(N)c(-c4nc5ncccc5o4)c3)cc2)CC1` [Example 43B.14]: 95.1%; `CS(=O)(=O)N1CCN(CCCOc2ccc(-c3cnc(N)c(-c4nc5ncccc5o4)c3)cc2)CC1` [Example 43B.15]: 86.0%; `Nc1ncc(-c2ccc(OCCCN3CCS(=O)(=O)CC3)cc2)cc1-c1nc2ncccc2o1` [Example 43B.16]: 95.3%. Same read-out and setting: next, `CN1CCCC1CCOc1ccc(-c2cnc(N)c(-c3nc4ncccc4o3)c2)cc1` (stereo not drawn) [Example 43B.17]: 99.5%. The same measure, in the same setting: next, `Nc1ncc(-c2ccc(OCCCN3CCCC3)cc2)cc1-c1nc2ncccc2o1` [Example 43B.18]: 99.9%. Consider `Nc1ncc(-c2ccc(OCCCN3CCOCC3)cc2)cc1-c1nc2ncccc2o1` [Example 43B.19], for which the “% Axl tyrosine kinase inhibition” value was determined as 95.8%. In the case of `CCN(CC)CCCOc1ccc(-c2cnc(N)c(-c3nc4ncccc4o3)c2)cc1` [Example 43B.20], the “% Axl tyrosine kinase inhibition” value stood at 98.9%. As to `CN1C2CCC1CC(Oc1ccc(-c3cnc(N)c(-c4nc5ncccc5o4)c3)cc1)C2` (stereo not drawn) [Example 43B.21], the “% Axl tyrosine kinase inhibition” value is listed as 99.6%. The same measure, in the same setting: next, `Nc1ncc(-c2ccc(OCCOCCN3CCOCC3)cc2)cc1-c1nc2ncccc2o1` [Example 43B.22]: 97.7%; `Nc1ncc(-c2ccc(OCC#CCN3CCS(=O)(=O)CC3)cc2)cc1-c1nc2ncccc2o1` [Example 43B.23]: 95.3%; `CN1CCN(S(=O)(=O)CCCOc2ccc(-c3cnc(N)c(-c4nc5ncccc5o4)c3)cc2)CC1` [Example 43B.24]: 98.2%. Same read-out and setting: next, `NCCOc1ccc(-c2cnc(N)c(-c3nc4ncccc4o3)c2)cc1` [Example 43B.25]: 97.5%; `CNCCOc1ccc(-c2cnc(N)c(-c3nc4ncccc4o3)c2)cc1` [Example 43B.26]: 97.7%; `Nc1ncc(-c2ccc(OC3CCNC3)cc2)cc1-c1nc2ncccc2o1` (stereo not drawn) [Example 43B.27]: 98.2%. As for `Nc1ncc(-c2ccc(OC[C@H]3CCCN3)cc2)cc1-c1nc2ncccc2o1` [Example 43B.28], the “% Axl tyrosine kinase inhibition” value is given as 98.7%. Still for that read-out and setting: next, `Nc1ncc(-c2ccc(OCCN3CCNCC3)cc2)cc1-c1nc2ncccc2o1` [Example 43B.29]: 93.6%.

The same test, now with this note: test compound at 1 μM; first value quoted; read-out: % Axl tyrosine kinase inhibition at 1 μM concentration.
Consider `Nc1ncc(-c2ccc(OCCCN3CCCC3)cc2)cc1-c1nc2cccnc2o1` [Example 42, 3-oxazolo[5,4-b]pyridin-2-yl-5-[4-(3-pyrrolidin-1-ylpropoxy)phenyl]pyridin-2-amine], for which the inhibition at 1 µM came out at 99.7%.

Staying with this test, now noted: test compound at 30 μM.
As to `Nc1ncc(-c2ccc(OCCN3CCCCC3)cc2)cc1-c1nc2ncccc2o1` [Example 43B.8], the “% of Axl tyrosine kinase activity inhibited at a concentration of 30 μM” value is reported as “^†††the compound disclosed in Example 43B.8 inhibited 98% of Axl tyrosine kinase activity at a concentration of 30 μM”.
